Reference: patent publication US5994365A, “Substituted diazaanthracene compounds having pharmaceutical utility” (Diazans Limited, priority 1998, dated 1999)
“And” between values parts separate entries of the source, which are not always exact repeats. Equal entries are not always repeated.

What was measured:
[1] = system: T. glabrata ATCC 90030; assay: In vitro antifungal susceptibility assay adapted from NCCLS (MIC); assay type: cell-based, Torulopsis glabrata; settings: RPMI-1640
Protocol: Compounds of the invention also display antifungal activities. […] Using C. albicans ATCC® 90028, C. neoformans ATCC® 90112 and T. glabrata ATCC® 90030, the protocol is performed as follows:
Prepare 0.0128 g DAA in 10 mL dH2 O (or other if H2 O insoluble)=1280 μg/mL (stock solution). Dilute DAA stock solution 1:10 with RPMI-1640: 0.5 mL DAA stock solution+4.5 mL RPMI-1640=128 μg/mL (DAA working solution).
Inoculate rows A-H, columns 2-12 with 100 μl of RPMI-1640 using Eppendorf repeater pipette. Inoculate rows A-C columns 1 and 2 with 100 μl of 1st antibiotic (i.e. DAA-1) using electronic pipette. Inoculate rows E-G columns 1 and 2 with 100 μl of 2nd antibiotic (i.e. DAA-2) using electronic pipette. […] Plate is now ready for fungal inocula, which involves pipetting 100 μl of the inocula into all wells in rows A-C columns 1-12 and rows E-G columns 1-12. […]
Five colonies greater than 1 mm in diameter are suspended in a spectrophotometer cuvette containing 5 mL of sterile, 0.85% saline (colonies are obtained from 24 hrs. old Candida and Torulopsis cultures, while Cryptococcus colonies are chosen from 48 hrs. old cultures). Spectrophotometer is set to read % transmission at a wavelength of 530 nm, and is standardized using two cuvettes. […] Fungal inoculum is now prepared and ready to be introduced to microplates. […]

[2] = system: ATCC S. epid 14990; assay: Broth microdilution (NCCLS guidelines), MIC; assay type: cell-based; settings: for MICs: in µg/mL
Protocol: (§1) The dimer product of Example 15 was obtained in powder form. A stock solution of 1280 mg/L of the dimer in dimethylsulfoxide (DMSO) was prepared and stored at room temperature in a foil-wrapped screw-capped tube (10 ml). Subsequent dilutions were prepared using cation-adjusted Mueller-Hinton broth (50 mg/L Mg). […] It was resuspended upon mixing each time an aliquot was taken from the solution.
(§2) Approximately 100 varied bacterial isolates were initially collected for screening, along with 9 ATCC organisms. Forty additional strains of Staphylococcus species were subsequently screened. All isolates were identified according to generally accepted lab protocol.
(§3) Broth microdilution was performed according to NCCLS guidelines. Microdilution panels were prepared using doubling dilutions of the dimer in ~250 μl plastic, 96-well trays. Inoculum suspension equal to a 0.5 McFarland standard were further diluted and added to the microdilution trays to achieve a final inoculum of 5×10^5 CFU/ml (5×10^4 CFU/well). Colony counts were performed to confirm the final inoculum, as well as its purity. Each strain was also tested in a growth control well containing only MHB for viability.
(§4) Microdilution trays were incubated at 35° C. in ambient air or 5% CO2 as appropriate for 16-20 hours. After incubation, the minimal inhibitory concentration (MIC) was defined as the lowest concentration of the dimer with no evidence of growth. Since 10 or more strains of most organisms were tested; a range of MICs was determined for each organism, as well as the concentration of the dimer that inhibited 50% of the strains (MIC50) and the concentration of the dimer that inhibited 90% of the strains (MIC90).

[3] = system: Acinetobacter; assay: Broth microdilution (NCCLS guidelines), MIC; assay type: cell-based; settings: Table A, 5 strains
Protocol: as §1, §2, §3, §4

[4] = system: B. cepacia; assay: Broth microdilution (NCCLS guidelines), MIC; assay type: cell-based; settings: Table A, 5 strains
Protocol: as §1, §2, §3, §4

[5] = system: Enterobacteriaceae; assay: Broth microdilution (NCCLS guidelines), MIC; assay type: cell-based; settings: Table A, 10 strains
Protocol: as §1, §2, §3, §4

[6] = system: Vancomycin resistant Enterococcus (VRE); assay: Broth microdilution (NCCLS guidelines), MIC; assay type: cell-based; settings: Table A
Protocol: as §1, §2, §3, §4

[7] = system: Vancomycin susceptible Enterococcus (VSE); assay: Broth microdilution (NCCLS guidelines), MIC; assay type: cell-based; settings: Table A
Protocol: as §1, §2, §3, §4

[8] = Precipitation of the dimer on dilution with Mueller-Hinton broth; assay type: physicochemical; settings: resuspended upon mixing
Protocol: as §1

## 10,10'-bis(3,6-dimethyl-5,10-dihydro-1,8-diazaanthracen-5-one) and 5,5'-bis(3,6-dimethyl-5,10-dihydro-1,8-diazaanthracen-10-one) [Example 15]
[1]
  MIC: 16 µg/mL
[2]; Table C, ATCC S. epid 14990 (×2), solution 14 days old
  MICs: 0.25
[2]; Table E, ATCC S. epid 14990, fresh solution, * = skipped wells (second value), listed as Dimer
  MICs: 0.3125 and 0.5
[2]; Table F, ATCC S. epid 14990
  MIC: 0.0312 µg/mL
[2]; Table G footnote, ATCC 14990 (coag neg staph)
  MIC: 0.0312 µg/mL
[3]
  MIC50: > 64 µg/mL
  MIC90: > 64 µg/mL
  Range of MICs: > 64 mg/L
[4]
  MIC50: > 64 µg/mL
  MIC90: > 64 µg/mL
  Range of MICs: ≥ 64 mg/L
[5]
  MIC50: > 64 µg/mL
  MIC90: > 64 µg/mL
  Range of MICs: > 64 mg/L
[6]; 12 strains
  MIC50: 64 µg/mL
  MIC90: > 64 µg/mL
  Range of MICs: ≥ 64 mg/L
[6]; ATCC VRE 51299
  MIC: > 64 µg/mL
[7]; 12 strains
  MIC50: > 64 µg/mL
  MIC90: > 64 µg/mL
[7]; ATCC VSE 29212
  MIC: > 64 µg/mL
[8]; at 128 mg/L in MHB
  precipitation: Some precipitation occurred at 128 mg/L
[8]; from 1280 mg/L DMSO stock, after sitting for short periods
  precipitation upon dilution with MH broth: some precipitation upon dilution with MH broth
